Experimental data from ChEMBL document CHEMBL3734659, “Identification of tris-(phenylalkyl)amines as new selective h5-HT2Breceptor antagonists” (Medchemcomm, 2015).
Calls of active or inactive are those of the source. No cut-off for these calls is given here.

Assays:
[1] = target: T1, 5-hydroxytryptamine receptor 2B (Homo sapiens, UniProt P41595); assay: Displacement of [3H]LSD from human recombinant 5-HT2B receptor stably expressed in HEK cell membrane at 10 uM after 90 mins by scintillation counting method; type: cell membranes; conditions: HEK293
T1 sequence (P41595 whole entry): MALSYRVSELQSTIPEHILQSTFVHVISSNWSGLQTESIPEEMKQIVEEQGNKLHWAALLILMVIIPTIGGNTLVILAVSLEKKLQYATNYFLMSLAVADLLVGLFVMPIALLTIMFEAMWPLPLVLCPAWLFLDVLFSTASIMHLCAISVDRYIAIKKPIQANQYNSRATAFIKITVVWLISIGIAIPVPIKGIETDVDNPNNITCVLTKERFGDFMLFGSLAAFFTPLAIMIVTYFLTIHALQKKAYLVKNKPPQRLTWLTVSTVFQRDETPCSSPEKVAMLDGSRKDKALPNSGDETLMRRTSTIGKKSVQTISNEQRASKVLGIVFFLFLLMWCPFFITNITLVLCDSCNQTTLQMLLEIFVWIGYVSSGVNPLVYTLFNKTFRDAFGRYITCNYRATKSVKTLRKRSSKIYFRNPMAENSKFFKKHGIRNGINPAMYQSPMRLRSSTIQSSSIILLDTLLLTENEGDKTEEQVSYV

[2] = Displacement of [3H]DTG from sigma 2 receptor stable expressed in rat PC12 cells after 90 mins by scintillation counting method; type: cell-based; conditions: pc-12
[3] = target: D(1B) dopamine receptor (Homo sapiens) (UniProt P21918); assay: Displacement of [3H]SCH23390 from human recombinant dopamine D5 receptor expressed in HEKT cell membrane after 90 mins by scintillation counting method; type: cell membranes
D(1B) dopamine receptor (Homo sapiens), sequence (P21918 whole entry): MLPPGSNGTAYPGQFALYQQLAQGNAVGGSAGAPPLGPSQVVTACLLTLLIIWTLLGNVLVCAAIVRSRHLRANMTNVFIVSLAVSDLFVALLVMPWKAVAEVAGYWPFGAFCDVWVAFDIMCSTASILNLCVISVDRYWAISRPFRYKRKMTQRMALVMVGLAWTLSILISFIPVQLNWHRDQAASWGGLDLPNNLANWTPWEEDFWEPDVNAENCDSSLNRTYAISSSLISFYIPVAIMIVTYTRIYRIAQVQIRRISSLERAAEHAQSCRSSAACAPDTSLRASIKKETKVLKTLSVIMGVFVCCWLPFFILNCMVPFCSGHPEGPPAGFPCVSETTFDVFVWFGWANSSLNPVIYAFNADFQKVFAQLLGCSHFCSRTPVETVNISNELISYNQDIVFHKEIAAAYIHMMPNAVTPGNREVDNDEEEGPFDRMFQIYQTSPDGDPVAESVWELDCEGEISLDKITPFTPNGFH

[4] = target: T1, 5-hydroxytryptamine receptor 2B; assay: Agonist activity at human recombinant 5-HT2B receptor expressed in Flp-In HEK cells preincubated for 10 mins by FLIPR based calcium mobilization assay; type: functional, cell-based; conditions: HEK293
[5] = target: T2, 5-hydroxytryptamine receptor 2C (Homo sapiens, UniProt P28335); assay: Antagonist activity at human recombinant 5-HT2C receptor expressed in Flp-In HEK cells in the presence of agonist preincubated for 10 mins by FLIPR based calcium mobilization assay; type: functional, cell-based, HEK293
T2 sequence (P28335 whole entry): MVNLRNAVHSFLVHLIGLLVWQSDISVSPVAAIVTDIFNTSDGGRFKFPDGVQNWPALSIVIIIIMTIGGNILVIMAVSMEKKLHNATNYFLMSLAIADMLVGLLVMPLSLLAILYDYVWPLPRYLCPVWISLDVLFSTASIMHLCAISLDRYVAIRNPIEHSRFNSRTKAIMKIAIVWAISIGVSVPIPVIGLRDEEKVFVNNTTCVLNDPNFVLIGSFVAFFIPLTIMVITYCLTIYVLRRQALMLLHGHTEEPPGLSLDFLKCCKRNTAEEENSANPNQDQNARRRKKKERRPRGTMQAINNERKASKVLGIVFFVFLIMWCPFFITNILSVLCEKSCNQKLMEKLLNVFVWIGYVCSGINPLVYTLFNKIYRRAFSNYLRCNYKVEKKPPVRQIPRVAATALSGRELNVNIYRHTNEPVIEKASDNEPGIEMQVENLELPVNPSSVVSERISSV

[6] = target: Alpha-1D adrenergic receptor (Homo sapiens, UniProt P25100); assay: Displacement of [3H]Prazosin from human recombinant alpha 1D receptor after 90 mins by scintillation counting method
[7] = target: Sodium-dependent noradrenaline transporter (Homo sapiens, UniProt P23975); assay: Displacement of [3H]Nisoxetine from human norepinephrine transporter stably expressed in HEK293 cells after 30 mins by neurotransmitter transporter uptake assay; type: cell-based
Sodium-dependent noradrenaline transporter, sequence (P23975 whole entry): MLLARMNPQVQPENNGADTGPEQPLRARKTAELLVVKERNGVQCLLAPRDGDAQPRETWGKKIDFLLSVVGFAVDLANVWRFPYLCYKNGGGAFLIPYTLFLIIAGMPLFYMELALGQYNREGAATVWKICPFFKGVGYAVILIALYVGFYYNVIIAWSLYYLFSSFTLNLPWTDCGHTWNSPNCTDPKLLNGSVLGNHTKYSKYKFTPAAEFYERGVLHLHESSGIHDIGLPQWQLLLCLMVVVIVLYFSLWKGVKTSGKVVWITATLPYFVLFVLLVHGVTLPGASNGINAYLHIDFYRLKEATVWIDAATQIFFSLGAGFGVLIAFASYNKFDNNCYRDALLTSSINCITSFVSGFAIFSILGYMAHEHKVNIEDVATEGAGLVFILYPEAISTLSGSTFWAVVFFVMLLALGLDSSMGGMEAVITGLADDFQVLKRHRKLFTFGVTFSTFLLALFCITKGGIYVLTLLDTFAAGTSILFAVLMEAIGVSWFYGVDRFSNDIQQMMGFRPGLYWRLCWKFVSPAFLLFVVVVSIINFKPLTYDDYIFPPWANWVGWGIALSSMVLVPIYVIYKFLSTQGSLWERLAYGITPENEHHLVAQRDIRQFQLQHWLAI

Rattus norvegicus = species on record: Rattus norvegicus; assay: Displacement of [3H]Flunitrazepam from rat brain BZP after 90 mins by scintillation counting method
[8] = target: T1, 5-hydroxytryptamine receptor 2B; assay: Antagonist activity at human recombinant 5-HT2B receptor expressed in Flp-In HEK cells in the presence of agonist preincubated for 10 mins by FLIPR based calcium mobilization assay; type: functional, cell-based, HEK293
[9] = target: T1, 5-hydroxytryptamine receptor 2B; assay: […] antagonist activity at human recombinant 5-HT2B receptor stably expressed in HEK cell membrane by schild plot method; set-up: species or system HEK293; conditions: read-out: pA2 (converted)
[10] = target: Muscarinic acetylcholine receptor M1 (Homo sapiens) (UniProt P11229); assay: Displacement of [3H]NMS from human Muscarinic acetylcholine M1 receptor stably expressed in CHO cell after 90 mins by scintillation counting method; type: cell-based
[11] = target: 5-hydroxytryptamine receptor 1D (Homo sapiens, UniProt P28221); assay: Displacement of [3H]5-CT from human recombinant 5-HT1D receptor expressed in HEKT cell membrane after 90 mins by scintillation counting method; type: cell membranes
[12] = target: Muscarinic acetylcholine receptor M2 (Homo sapiens) (UniProt P08172); assay: Displacement of [3H]QNB from human Muscarinic acetylcholine M2 receptor stably expressed in CHO cell after 90 mins by scintillation counting method; type: cell-based
[13] = target: 5-hydroxytryptamine receptor 5A (Homo sapiens) (UniProt P47898); assay: Displacement of [3H]LSD from human recombinant 5-HT5A receptor expressed in Flp-In CHO cell membrane after 90 mins by scintillation counting method; type: cell membranes
5-hydroxytryptamine receptor 5A (Homo sapiens), sequence (P47898 whole entry): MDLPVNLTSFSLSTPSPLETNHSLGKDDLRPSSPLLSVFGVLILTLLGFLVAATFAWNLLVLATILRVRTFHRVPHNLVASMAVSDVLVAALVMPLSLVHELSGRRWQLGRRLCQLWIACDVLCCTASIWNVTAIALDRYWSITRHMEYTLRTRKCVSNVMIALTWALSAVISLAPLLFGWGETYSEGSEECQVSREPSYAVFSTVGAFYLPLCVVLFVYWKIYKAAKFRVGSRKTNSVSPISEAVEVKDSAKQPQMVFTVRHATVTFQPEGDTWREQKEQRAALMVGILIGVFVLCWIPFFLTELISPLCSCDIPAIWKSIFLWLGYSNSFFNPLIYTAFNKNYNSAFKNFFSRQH

D(4) dopamine receptor = D(4) dopamine receptor (Homo sapiens, UniProt P21917); assay: Displacement of [3H]N-methylspiperone from human recombinant dopamine D4 receptor after 90 mins by scintillation counting method
D(4) dopamine receptor, sequence (P21917 whole entry): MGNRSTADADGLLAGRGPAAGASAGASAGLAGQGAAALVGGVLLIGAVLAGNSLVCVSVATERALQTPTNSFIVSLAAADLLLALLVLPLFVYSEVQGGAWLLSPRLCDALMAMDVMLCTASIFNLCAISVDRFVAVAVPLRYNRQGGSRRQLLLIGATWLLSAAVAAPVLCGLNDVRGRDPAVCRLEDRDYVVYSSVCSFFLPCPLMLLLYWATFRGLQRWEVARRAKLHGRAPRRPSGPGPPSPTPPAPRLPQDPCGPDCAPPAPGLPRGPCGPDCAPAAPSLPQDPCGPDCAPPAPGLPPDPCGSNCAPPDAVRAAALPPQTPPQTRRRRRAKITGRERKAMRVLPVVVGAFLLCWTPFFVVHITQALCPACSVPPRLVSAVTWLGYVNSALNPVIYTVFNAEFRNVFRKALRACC

[14] = target: Sodium-dependent dopamine transporter (Homo sapiens, UniProt Q01959); assay: Displacement of [3H]WIN35428 from human dopamine transporter stably expressed in HEK293 cells after 30 mins by neurotransmitter transporter uptake assay; type: cell-based
[15] = target: Alpha-1A adrenergic receptor (Homo sapiens, UniProt P35348); assay: Displacement of [3H]Prazosin from human recombinant alpha 1A receptor after 90 mins by scintillation counting method
Alpha-1A adrenergic receptor, sequence (P35348 whole entry): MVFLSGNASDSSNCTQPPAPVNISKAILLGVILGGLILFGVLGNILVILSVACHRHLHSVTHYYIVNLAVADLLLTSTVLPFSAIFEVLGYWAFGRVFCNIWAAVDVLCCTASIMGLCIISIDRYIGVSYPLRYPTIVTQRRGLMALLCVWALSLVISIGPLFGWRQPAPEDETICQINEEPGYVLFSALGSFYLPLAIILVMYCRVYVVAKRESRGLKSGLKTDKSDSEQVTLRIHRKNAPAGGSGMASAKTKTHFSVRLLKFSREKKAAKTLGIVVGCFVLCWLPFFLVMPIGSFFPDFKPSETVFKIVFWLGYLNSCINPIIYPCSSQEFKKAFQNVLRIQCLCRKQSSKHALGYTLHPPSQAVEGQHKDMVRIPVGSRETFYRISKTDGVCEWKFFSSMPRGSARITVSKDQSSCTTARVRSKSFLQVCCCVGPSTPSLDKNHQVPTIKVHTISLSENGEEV

[16] = target: T2, 5-hydroxytryptamine receptor 2C; assay: Displacement of [3H]mesulergine from human recombinant 5-HT2C receptor expressed in Flp-IN HEK cell membrane after 90 mins by scintillation counting method; type: cell membranes, HEK293; conditions: read-out: Ki
[17] = target: T3, 5-hydroxytryptamine receptor 2C (Homo sapiens) (UniProt P28335); assay: Displacement of [3H]mesulergine from human recombinant 5-HT2C receptor expressed in Flp-IN HEK cell membrane at 10 uM after 90 mins by scintillation counting method; type: cell membranes; conditions: HEK293
T3 sequence (whole entry): T2 sequence (P28335 whole entry)

[18] = target: T4, 5-hydroxytryptamine receptor 2A (Homo sapiens, UniProt P28223); assay: Displacement of [3H]ketanserin from human recombinant 5-HT2A receptor expressed in HEKT cell membrane at 10 uM after 90 mins by scintillation counting method; type: cell membranes
T4 sequence (P28223 whole entry): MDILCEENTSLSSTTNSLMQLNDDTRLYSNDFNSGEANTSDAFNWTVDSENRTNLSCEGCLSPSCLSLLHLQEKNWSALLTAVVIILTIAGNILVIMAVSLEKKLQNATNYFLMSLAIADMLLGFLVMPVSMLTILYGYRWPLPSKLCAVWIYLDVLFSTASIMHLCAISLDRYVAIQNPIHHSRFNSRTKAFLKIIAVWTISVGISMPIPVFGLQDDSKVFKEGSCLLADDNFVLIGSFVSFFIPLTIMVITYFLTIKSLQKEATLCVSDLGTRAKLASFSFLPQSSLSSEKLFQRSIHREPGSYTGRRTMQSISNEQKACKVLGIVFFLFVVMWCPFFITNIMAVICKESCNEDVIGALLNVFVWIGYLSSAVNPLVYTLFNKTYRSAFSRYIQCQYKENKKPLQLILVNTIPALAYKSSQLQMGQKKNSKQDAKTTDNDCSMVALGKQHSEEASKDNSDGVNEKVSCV

[19] = target: Translocator protein (Rattus norvegicus) (UniProt P16257); assay: Displacement of [3H]PK11195 from rat brain PBR after 90 mins by scintillation counting method
Translocator protein (Rattus norvegicus), sequence (P16257 whole entry, looked up): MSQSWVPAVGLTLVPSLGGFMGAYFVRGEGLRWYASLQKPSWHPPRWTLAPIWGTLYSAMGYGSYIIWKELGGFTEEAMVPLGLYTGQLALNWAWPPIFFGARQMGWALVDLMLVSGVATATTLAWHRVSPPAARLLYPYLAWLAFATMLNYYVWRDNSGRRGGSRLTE

[20] = target: T4, 5-hydroxytryptamine receptor 2A; assay: Displacement of [3H]ketanserin from human recombinant 5-HT2A receptor expressed in HEKT cell membrane after 90 mins by scintillation counting method; type: cell-based
[21] = target: Delta-type opioid receptor (Homo sapiens) (UniProt P41143); assay: Displacement of [3H]DADLE from human delta-opioid receptor stably expressed in HEK cell membrane after 90 mins by scintillation counting method; type: cell membranes; conditions: HEK293
[22] = target: Muscarinic acetylcholine receptor M3 (Homo sapiens) (UniProt P20309); assay: Displacement of [3H]NMS from human Muscarinic acetylcholine M3 receptor stably expressed in CHO cell after 90 mins by scintillation counting method; type: cell-based
Muscarinic acetylcholine receptor M3 (Homo sapiens), sequence (P20309 whole entry, looked up): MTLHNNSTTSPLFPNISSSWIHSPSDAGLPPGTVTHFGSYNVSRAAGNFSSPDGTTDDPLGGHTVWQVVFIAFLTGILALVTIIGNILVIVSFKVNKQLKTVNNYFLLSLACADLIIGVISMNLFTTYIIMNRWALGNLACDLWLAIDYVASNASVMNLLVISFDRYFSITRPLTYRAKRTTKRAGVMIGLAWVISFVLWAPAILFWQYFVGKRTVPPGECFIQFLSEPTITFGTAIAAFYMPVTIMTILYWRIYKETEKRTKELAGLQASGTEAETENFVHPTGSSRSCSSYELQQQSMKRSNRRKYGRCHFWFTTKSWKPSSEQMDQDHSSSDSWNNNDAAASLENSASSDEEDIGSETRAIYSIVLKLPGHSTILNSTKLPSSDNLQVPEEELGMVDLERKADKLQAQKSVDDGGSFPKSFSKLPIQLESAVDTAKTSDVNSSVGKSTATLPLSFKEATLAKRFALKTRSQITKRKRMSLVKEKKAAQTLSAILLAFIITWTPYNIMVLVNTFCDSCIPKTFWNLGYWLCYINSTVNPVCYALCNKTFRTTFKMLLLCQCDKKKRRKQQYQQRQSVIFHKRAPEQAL

[23] = target: Beta-2 adrenergic receptor (Homo sapiens) (UniProt P07550); assay: Displacement of [3H]CGP12177 from human recombinant beta 2 receptor expressed in HEK Flp-In cells after 90 mins by scintillation counting method; type: cell-based; conditions: HEK293
[24] = target: T4, 5-hydroxytryptamine receptor 2A; assay: Antagonist activity at human recombinant 5-HT2A receptor expressed in Flp-In HEK cells in the presence of agonist preincubated for 10 mins by FLIPR based calcium mobilization assay; type: functional, cell-based, HEK293
D(1A) dopamine receptor = D(1A) dopamine receptor (Homo sapiens, UniProt P21728); assay: Displacement of [3H]SCH23390 from human recombinant dopamine D1 receptor expressed in HEKT cell membrane after 90 mins by scintillation counting method; type: cell membranes
D(1A) dopamine receptor, sequence (P21728 whole entry): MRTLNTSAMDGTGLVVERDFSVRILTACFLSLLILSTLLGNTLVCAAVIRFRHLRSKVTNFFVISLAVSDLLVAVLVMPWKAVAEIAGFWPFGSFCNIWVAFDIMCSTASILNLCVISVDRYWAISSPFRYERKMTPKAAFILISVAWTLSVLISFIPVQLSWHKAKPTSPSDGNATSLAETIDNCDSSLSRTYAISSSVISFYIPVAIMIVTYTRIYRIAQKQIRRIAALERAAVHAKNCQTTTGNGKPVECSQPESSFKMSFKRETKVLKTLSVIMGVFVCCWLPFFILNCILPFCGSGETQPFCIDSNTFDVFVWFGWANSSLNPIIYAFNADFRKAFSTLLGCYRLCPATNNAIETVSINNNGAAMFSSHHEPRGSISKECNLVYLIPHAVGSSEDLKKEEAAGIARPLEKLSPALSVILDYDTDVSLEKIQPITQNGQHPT

[25] = target: Muscarinic acetylcholine receptor M4 (Homo sapiens) (UniProt P08173); assay: Displacement of [3H]QNB from human Muscarinic acetylcholine M4 receptor stably expressed in CHO cell after 90 mins by scintillation counting method; type: cell-based
Muscarinic acetylcholine receptor M4 (Homo sapiens), sequence (P08173 whole entry): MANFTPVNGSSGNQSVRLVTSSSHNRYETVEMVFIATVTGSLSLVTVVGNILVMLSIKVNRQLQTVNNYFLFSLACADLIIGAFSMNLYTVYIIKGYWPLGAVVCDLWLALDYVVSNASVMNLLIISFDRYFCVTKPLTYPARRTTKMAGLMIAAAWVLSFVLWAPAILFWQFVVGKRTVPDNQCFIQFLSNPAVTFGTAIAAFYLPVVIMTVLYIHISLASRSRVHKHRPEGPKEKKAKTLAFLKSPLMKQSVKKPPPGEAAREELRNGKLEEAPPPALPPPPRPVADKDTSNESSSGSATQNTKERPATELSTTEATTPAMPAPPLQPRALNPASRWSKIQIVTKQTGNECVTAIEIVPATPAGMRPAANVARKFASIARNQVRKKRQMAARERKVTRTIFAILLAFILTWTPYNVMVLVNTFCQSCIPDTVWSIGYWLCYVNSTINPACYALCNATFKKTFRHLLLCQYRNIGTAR

Mu-type opioid receptor = Mu-type opioid receptor (Homo sapiens, UniProt P35372); assay: Displacement of [3H]DAMGO from human mu-opioid receptor stably expressed in HEK cell membrane after 90 mins by scintillation counting method; type: cell membranes, HEK293

In the case of `COc1ccc(CCN(CCCc2ccccc2)CCc2ccc3c(c2)OCO3)cc1OC`, the inhibition [1] is reported as > 50%, the Ki [2] is reported as 242 nM and the Activity [3] is reported as “inactive”. For the same compound, the Activity [4] was “inactive”, the IC50 [5] was 12600 nM and the Ki [6] was 467 nM. The Ki [7] was 11 nM, the Activity (Rattus norvegicus) was “inactive” and the IC50 [8] was 794 nM. The Kb [9] was 550 nM, the Activity [10] was “inactive” and the Ki [11] was 451 nM. The Activity [12] was “inactive”, the Activity [13] was “inactive” and the Ki (D(4) dopamine receptor) was 853 nM. It also gave a Ki [14] of 498 nM, a Ki [15] of 333 nM and a Ki [16] of 399 nM. The inhibition [17] was > 50%, the inhibition [18] was > 50% and the Activity [19] was “inactive”. The Ki [20] was 165 nM, the Activity [21] was “inactive” and the Activity [22] was “inactive”. For the same compound, the Activity [23] was “inactive”, the IC50 [24] was 5010 nM and the Ki (D(1A) dopamine receptor) was 1680 nM. The Activity [25] was “inactive” and the Ki (Mu-type opioid receptor) was 341 nM.
